# Reference: patent US8551999B2, “Heterocyclic compound and pharmaceutical composition thereof” (Otsuka Pharmaceutical Co., Ltd., priority 2007, dated 2013)
row,melting point,SMILES
1,117 to 120 °C,"Cc1nc(Oc2ccc3c(c2)cc(C(=O)N2CCN(Cc4ccncc4)CC2)n3C)ccc1N(C)C(=O)c1ccc(C(F)(F)F)cc1.O=C(O)C(=O)O.O=C(O)C(=O)O [Example 566, N-Methyl-N-{2-methyl-6-[1-methyl-2-(4-pyridin-4-ylmethyl-piperazine-1-carbonyl)-1H-indol-5-yloxy]pyridin-3-yl}-4-tri-fluoromethylbenzamide dioxalate]"
2,225.4 to 227.1 °C,"Br.CN(C(=O)c1ccc(Cl)c(Cl)c1)c1ccc(Oc2ccc3cc(C(=O)N4CCN(Cc5ccc6c(c5)OC(F)(F)O6)CC4)n(C)c3c2)nc1 [Example 489, 3,4-Dichloro-N-(6-{2-[4-(2,2-difluorobenzo[1,3]dioxol-5-yl-methyl)piperazine-1-carbonyl]-1-methyl-1H-indol-6-yloxy}pyridin-3-yl)-N-methylbenzamide hydrobromide]"
3,144 to 147 °C,"COc1ccc(CN2CCN(C(=O)c3cc4cc(Oc5cc(C)c(NC(=O)c6ccc(C(F)(F)F)cc6)cn5)ccc4n3C)CC2)cc1.O=C(O)C(=O)O [Example 433, N-(6-{2-[4-(4-Methoxybenzyl)piperazine-1-carbonyl]-1-methyl-1H-indol-5-yloxy}-4-methylpyridin-3-yl)-4-trifluoromethylbenzamide oxalate]"
4,223.6 to 225.4 °C,"Br.CN(C(=O)c1ccc(C(F)(F)F)cc1Cl)c1ccc(Oc2ccc3cc(C(=O)N4CCN(Cc5ccc(OCCF)cc5)CC4)n(C)c3c2)nc1 [Example 447, 2-Chloro-N-[6-(2-{4-[4-(2-fluoroethoxy)benzyl]piperazine-1-carbonyl}-1-methyl-1H-indol-6-yloxy)pyridin-3-yl]-N-methyl-4-tri-fluoromethylbenzamide hydrobromide]"
5,255 to 257 °C,"Br.Cn1c(C(=O)N2CCN(Cc3ccc(OC(F)(F)C(F)F)cc3)CC2)cc2cc(Oc3ccc(NC(=O)c4ccc(C(F)(F)F)cc4)cn3)ccc21 [Example 402, N-[6-(1-Methyl-2-{4-[4-(1,1,2,2-tetrafluoroethoxy)benzyl]-piperazine-1-carbonyl}-1H-indol-5-yloxy)pyridin-3-yl]-4-tri-fluoromethylbenzamide hydrobromide]"
6,143.4 to 147.2 °C,"CN(c1ccc(Oc2ccc3cc(C(=O)N4CCN(Cc5ccc(OC(F)F)cc5)CC4)n(C)c3c2)nc1)S(=O)(=O)c1ccc(Cl)c(Cl)c1 [Example 515, 3,4-Dichloro-N-(6-{2-[4-(4-difluoromethoxybenzyl)piperazine-1-carbonyl]-1-methyl-1H-indol-6-yloxy}pyridin-3-yl)-N-methyl-benzenesulfonamide]"
7,155 to 160 °C,"CN(C(=O)c1ccc(C(F)(F)F)cc1O)c1ccc(Oc2ccc3c(c2)cc(C(=O)N2CCN(Cc4ccc(OC(F)F)cc4)CC2)n3C)nc1.O=C(O)C(=O)O [Example 594, N-(6-{2-[4-(4-Difluoromethoxybenzyl)piperazine-1-carbonyl]-1-methyl-1H-indol-5-yloxy}pyridin-3-yl)-2-hydroxy-N-methyl-4-tri-fluoromethylbenzamide oxalate]"
8,264 to 265.6 °C,"Br.Cn1c(C(=O)N2CCN(Cc3ccc4c(c3)OCO4)CC2)cc2ccc(Oc3ccc(NC(=O)c4ccc(C(F)(F)F)cc4)cn3)cc21 [Example 454, N-{6-[2-(4-Benzo[1,3]dioxol-5-ylmethylpiperazine-1-carbonyl)-1-methyl-1H-indol-6-yloxy]pyridin-3-yl}-4-trifluoromethylbenzamide hydrobromide]"

# The next lines start with the compound.
row,SMILES,melting point
1,"Br.CN(C(=O)c1ccc(C(F)(F)F)cc1)c1ccc(Oc2cccc3cc(C(=O)N4CCN(Cc5ccc(C#N)cc5)CC4)n(C)c23)nc1 [Example 324, N-(6-{2-[4-(4-Cyanobenzyl)piperazine-1-carbonyl]-1-methyl-1H-indol-7-yloxy}pyridin-3-yl)-N-methyl-4-trifluoromethylbenzamide hydrobromide]",200 to 201 °C
2,"Br.COc1cccc(CN2CCN(C(=O)c3cc4cc(Oc5ccc(N(C)C(=O)c6ccc(C(F)(F)F)cc6)cn5)ccc4n3C)CC2)c1 [Example 351, N-(6-{2-[4-(3-Methoxybenzyl)piperazine-1-carbonyl]-1-methyl-1H-indol-5-yloxy}pyridin-3-yl)-N-methyl-4-trifluoromethylbenzamide hydrobromide]",217 to 219 °C
3,"COc1ccc(CN2CCN(C(=O)c3cc4cc(Oc5ccc(N(C)C(=O)c6cc7cc(Br)ccc7[nH]6)cn5)ccc4n3C)CC2)cc1.O=C(O)/C=C\C(=O)O [Example 229, 5-Bromo-1H-indole-2-carboxylic acid (6-{2-[4-(4-methoxybenzyl)-piperazine-1-carbonyl]-1-methyl-1H-indol-5-yloxy}pyridin-3-yl)-methylamide maleate]",205 to 207 °C
4,"CC(C)Oc1ccc(CN2CCN(C(=O)c3cc4ccc(Oc5ncc(N(C)S(=O)(=O)c6ccc(C(F)(F)F)cc6)cn5)cc4n3C)CC2)cc1 [Example 42, N-(2-{2-[4-(4-Isopropoxybenzyl)piperazine-1-carbonyl]-1-methyl-1H-indol-6-yloxy}pyrimidin-5-yl)-N-methyl-4-trifluoromethyl-benzenesulfonamide]",186.6 to 187.3 °C
5,"COCc1ccc(CN2CCN(C(=O)c3cc4cc(Oc5ccc(N(C)C(=O)c6ccc(Cl)c(Cl)c6)cn5)ccc4n3C)CC2)cc1.O=C(O)/C=C\C(=O)O [Example 376, 3,4-Dichloro-N-(6-{2-[4-(4-methoxymethylbenzyl)piperazine-1-carbonyl]-1-methyl-1H-indol-5-yloxy}pyridin-3-yl)-N-methyl-benzamide maleate]",100 to 101 °C
6,"COc1ccc(CN2CCN(C(=O)c3cc4cc(Oc5ccc(N(C)C(=O)c6ccc(-n7cccc7)nc6)cn5)ccc4n3C)CC2)cc1.O=C(O)C(=O)O.O=C(O)C(=O)O [Example 227, N-(6-{2-[4-(4-Methoxybenzyl)piperazine-1-carbonyl]-1-methyl-1H-indol-5-yloxy}pyridin-3-yl)-N-methyl-6-pyrrol-1-ylnicotinamide dioxalate]",185 to 187 °C
7,"Br.CCOc1cccc(CN2CCN(C(=O)c3cc4cc(Oc5ccc(NC(=O)c6ccc(Cl)c(Cl)c6)cn5)ccc4n3C)CC2)c1 [Example 373, 3,4-Dichloro-N-(6-{2-[4-(3-ethoxybenzyl)piperazine-1-carbonyl]-1-methyl-1H-indol-5-yloxy}pyridin-3-yl)benzamide hydrobromide]",225 to 227 °C
8,"Br.CCCOc1ccc(CN2CCN(C(=O)c3cc4cc(Oc5ccc(NC(=O)c6ccc(Cl)c(Cl)c6)cn5)ccc4n3C)CC2)cc1 [Example 369, 3,4-Dichloro-N-(6-{1-methyl-2-[4-(4-propoxybenzyl)piperazine-1-carbonyl]-1H-indol-5-yloxy}pyridin-3-yl)benzamide hydrobromide]",249 to 252 °C (dec.)
9,"Br.COc1ccc(CN2CCN(C(=O)c3cc4cc(Oc5ccc(NC(=O)c6ccc(C(F)(F)F)cc6Cl)cn5)ccc4n3C)CC2)cc1 [Example 231, 2-Chloro-N-(6-{2-[4-(4-methoxybenzyl)piperazine-1-carbonyl]-1-methyl-1H-indol-5-yloxy}pyridin-3-yl)-4-trifluoromethylbenzamide hydrobromide]",239 to 241 °C
